# Results as given in PubChem BioAssay (NCI).
#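 Five compound concentrations were applied to cells in 96-well plates for 48 hours; endpoints were derived by simple linear interpolation of the resulting dose-response curve. At the GI50, growth is halved. TGI: concentration producing complete growth inhibition.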
# Experiments:
# Test in all cases: NCI-60 cell line screen, 48 h
# NCI-H23 lung = system: NCI-H23 lung
# NCI-H460 lung = system: NCI-H460 lung
# NCI-H522 lung = system: NCI-H522 lung
# NCI/ADR-RES ovarian = system: NCI/ADR-RES ovarian
# OVCAR-3 ovarian = system: OVCAR-3 ovarian
# OVCAR-4 ovarian = system: OVCAR-4 ovarian
# OVCAR-5 ovarian = system: OVCAR-5 ovarian
# OVCAR-8 ovarian = system: OVCAR-8 ovarian
# PC-3 prostate = system: PC-3 prostate
# RPMI-8226 leukemia = system: RPMI-8226 leukemia
# RXF 393 renal = system: RXF 393 renal
# SF-268 CNS = system: SF-268 CNS
# SF-295 CNS = system: SF-295 CNS
# SF-539 CNS = system: SF-539 CNS
# SK-MEL-2 melanoma = system: SK-MEL-2 melanoma
# SK-MEL-28 melanoma = system: SK-MEL-28 melanoma
# SK-MEL-5 melanoma = system: SK-MEL-5 melanoma
# SK-OV-3 ovarian = system: SK-OV-3 ovarian
# SN12C renal = system: SN12C renal
# SNB-19 CNS = system: SNB-19 CNS
# SNB-75 CNS = system: SNB-75 CNS
# SR leukemia = system: SR leukemia
# SW-620 colon = system: SW-620 colon
# T-47D breast = system: T-47D breast
# TK-10 renal = system: TK-10 renal
# U251 CNS = system: U251 CNS
# UACC-257 melanoma = system: UACC-257 melanoma
# UACC-62 melanoma = system: UACC-62 melanoma
# UO-31 renal = system: UO-31 renal
structure (smiles),measurement,setting,value
COc1cccc(C(=O)c2sc(Nc3ccc(N4CCN(C(C)C)CC4)cc3)nc2N)c1,TGI,NCI-H23 lung,8.01 µM
same,GI50,NCI-H460 lung,0.92 µM
same,TGI,NCI-H460 lung,7.87 µM
same,GI50,NCI-H522 lung,3.94 µM
same,TGI,NCI-H522 lung,7.86 µM
same,GI50,NCI/ADR-RES ovarian,2.46 µM
same,TGI,NCI/ADR-RES ovarian,> 22.9 µM
same,GI50,OVCAR-3 ovarian,1.52 µM
same,TGI,OVCAR-3 ovarian,9.18 µM
same,GI50,OVCAR-4 ovarian,3.48 µM
same,TGI,OVCAR-4 ovarian,16.2 µM
same,GI50,OVCAR-5 ovarian,0.769 µM
same,TGI,OVCAR-5 ovarian,> 22.4 µM
same,GI50,OVCAR-8 ovarian,1.49 µM
same,TGI,OVCAR-8 ovarian,24.8 µM
same,GI50,PC-3 prostate,0.892 µM
same,TGI,PC-3 prostate,10.9 µM
same,GI50,RPMI-8226 leukemia,1.34 µM
same,TGI,RPMI-8226 leukemia,6.52 µM
same,GI50,RXF 393 renal,0.437 µM
same,TGI,RXF 393 renal,1.12 µM
same,GI50,SF-268 CNS,1.52 µM
same,TGI,SF-268 CNS,5.06 µM
same,GI50,SF-295 CNS,2.55 µM
same,TGI,SF-295 CNS,8.83 µM
same,GI50,SF-539 CNS,1.55 µM
same,TGI,SF-539 CNS,4.65 µM
same,GI50,SK-MEL-2 melanoma,1.8 µM
same,TGI,SK-MEL-2 melanoma,5.49 µM
same,GI50,SK-MEL-28 melanoma,1.85 µM
same,TGI,SK-MEL-28 melanoma,7.05 µM
same,GI50,SK-MEL-5 melanoma,1.33 µM
same,TGI,SK-MEL-5 melanoma,5.21 µM
same,GI50,SK-OV-3 ovarian,5.91 µM
same,TGI,SK-OV-3 ovarian,> 24.1 µM
same,GI50,SN12C renal,0.895 µM
same,TGI,SN12C renal,13.8 µM
same,GI50,SNB-19 CNS,1.04 µM
same,TGI,SNB-19 CNS,> 25 µM
same,GI50,SNB-75 CNS,2.02 µM
same,TGI,SNB-75 CNS,5.34 µM
same,GI50,SR leukemia,0.478 µM
same,TGI,SR leukemia,> 7.24 µM
same,GI50,SW-620 colon,0.853 µM
same,TGI,SW-620 colon,> 13.1 µM
same,GI50,T-47D breast,2.11 µM
same,TGI,T-47D breast,13.5 µM
same,GI50,TK-10 renal,1.34 µM
same,TGI,TK-10 renal,9.19 µM
same,GI50,U251 CNS,0.949 µM
same,TGI,U251 CNS,7.1 µM
same,GI50,UACC-257 melanoma,3.03 µM
same,TGI,UACC-257 melanoma,6.34 µM
same,GI50,UACC-62 melanoma,2.84 µM
same,TGI,UACC-62 melanoma,6.21 µM
same,GI50,UO-31 renal,1.4 µM
same,TGI,UO-31 renal,7.16 µM
